# According to PubChem BioAssay (NCI):
# Several values for one entry are separate records, joined by “and”; a condition that tells them apart may be missing. Identical values can stand only once.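 Five compound concentrations were applied to cells in 96-well plates for 48 hours; endpoints were derived by simple linear interpolation of the resulting dose-response curve. GI50 is the concentration that inhibits growth by half. TGI: concentration producing complete growth inhibition.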 Where a SMILES comes first, the peptide text is derived from it. The star is where a group is joined. Fmoc = O=C(OCC1c2ccccc2-c2ccccc21)*; Boc = CC(C)(C)OC(=O)*; OtBu = CC(C)(C)O*
# Experiments:
# Assay in all cases: growth of human tumour cells (NCI), 48 h
# 786-0 renal = test system: 786-0 renal
# A549 NSCLC = test system: A549 NSCLC
# ACHN renal = test system: ACHN renal
# BT-549 breast = test system: BT-549 breast
# CAKI-1 renal = test system: CAKI-1 renal
# CCRF-CEM leukemia = test system: CCRF-CEM leukemia
# COLO 205 colon = test system: COLO 205 colon
# DU-145 prostate = test system: DU-145 prostate
# EKVX NSCLC = test system: EKVX NSCLC
# HCT-116 colon = test system: HCT-116 colon
# HCT-15 colon = test system: HCT-15 colon
# HL-60(TB) leukemia = test system: HL-60(TB) leukemia
# HOP-62 NSCLC = test system: HOP-62 NSCLC
# HOP-92 NSCLC = test system: HOP-92 NSCLC
# HS 578T breast = test system: HS 578T breast
# HT29 colon = test system: HT29 colon
# IGROV1 ovarian = test system: IGROV1 ovarian
# K-562 leukemia = test system: K-562 leukemia
# KM12 colon = test system: KM12 colon
# LOX IMVI melanoma = test system: LOX IMVI melanoma
# M14 melanoma = test system: M14 melanoma
# MALME-3M melanoma = test system: MALME-3M melanoma
# MCF7 breast = test system: MCF7 breast
# MDA-MB-231 breast = test system: MDA-MB-231 breast
# MDA-MB-435 = test system: MDA-MB-435
# MDA-N = test system: MDA-N
# MOLT-4 leukemia = test system: MOLT-4 leukemia
# NCI-H226 lung = test system: NCI-H226 lung
# NCI-H23 lung = test system: NCI-H23 lung
# NCI-H522 lung = test system: NCI-H522 lung
# NCI/ADR-RES ovarian = test system: NCI/ADR-RES ovarian
# OVCAR-3 ovarian = test system: OVCAR-3 ovarian
# OVCAR-4 ovarian = test system: OVCAR-4 ovarian
# OVCAR-5 ovarian = test system: OVCAR-5 ovarian
# OVCAR-8 ovarian = test system: OVCAR-8 ovarian
# PC-3 prostate = test system: PC-3 prostate
# RPMI-8226 leukemia = test system: RPMI-8226 leukemia
# RXF 393 renal = test system: RXF 393 renal
# SF-268 CNS = test system: SF-268 CNS
# SF-295 CNS = test system: SF-295 CNS
# SF-539 CNS = test system: SF-539 CNS
# SK-MEL-2 melanoma = test system: SK-MEL-2 melanoma
# SK-MEL-28 melanoma = test system: SK-MEL-28 melanoma
# SK-MEL-5 melanoma = test system: SK-MEL-5 melanoma
# SK-OV-3 ovarian = test system: SK-OV-3 ovarian
# SN12C renal = test system: SN12C renal
# SNB-19 CNS = test system: SNB-19 CNS
# SNB-75 CNS = test system: SNB-75 CNS
# SR leukemia = test system: SR leukemia
# SW-620 colon = test system: SW-620 colon
# T-47D breast = test system: T-47D breast
# TK-10 renal = test system: TK-10 renal
# U251 CNS = test system: U251 CNS
# UACC-257 melanoma = test system: UACC-257 melanoma
# UO-31 renal = test system: UO-31 renal
# HCC-2998 colon = test system: HCC-2998 colon
# NCI-H460 lung = test system: NCI-H460 lung
# UACC-62 melanoma = test system: UACC-62 melanoma
compound,measurement,setting,value
O=C(c1ccccc1)c1ccc2nc(-c3c(Cl)c(Cl)c(Cl)c(Cl)c3C(=O)N/N=C\C=C\c3ccccc3)[nH]c2c1,TGI,786-0 renal,> 100 µM
same,TGI,A549 NSCLC,> 100 µM
same,TGI,ACHN renal,> 100 µM
same,TGI,BT-549 breast,> 100 µM
same,TGI,CAKI-1 renal,> 100 µM
same,TGI,CCRF-CEM leukemia,86.8 µM
same,TGI,COLO 205 colon,> 100 µM
same,TGI,DU-145 prostate,> 100 µM
same,TGI,EKVX NSCLC,> 100 µM
same,TGI,HCT-116 colon,> 100 µM
same,TGI,HCT-15 colon,> 100 µM
same,TGI,HL-60(TB) leukemia,> 100 µM
same,TGI,HOP-62 NSCLC,> 100 µM
same,TGI,HOP-92 NSCLC,> 100 µM
same,TGI,HS 578T breast,> 100 µM
same,TGI,HT29 colon,> 100 µM
same,TGI,IGROV1 ovarian,> 100 µM
same,TGI,K-562 leukemia,> 100 µM
same,TGI,KM12 colon,> 100 µM
same,TGI,LOX IMVI melanoma,> 100 µM
same,TGI,M14 melanoma,> 100 µM
same,TGI,MALME-3M melanoma,> 100 µM
same,TGI,MCF7 breast,> 100 µM
same,TGI,MDA-MB-231 breast,> 100 µM
same,TGI,MDA-MB-435,> 100 µM
same,TGI,MDA-N,> 100 µM
same,TGI,MOLT-4 leukemia,> 100 µM
same,TGI,NCI-H226 lung,> 100 µM
same,TGI,NCI-H23 lung,> 100 µM
same,TGI,NCI-H522 lung,> 100 µM
same,TGI,NCI/ADR-RES ovarian,> 100 µM
same,TGI,OVCAR-3 ovarian,84.8 µM
same,TGI,OVCAR-4 ovarian,> 100 µM
same,TGI,OVCAR-5 ovarian,> 100 µM
same,TGI,OVCAR-8 ovarian,> 100 µM
same,TGI,PC-3 prostate,> 100 µM
same,TGI,RPMI-8226 leukemia,64 µM
same,TGI,RXF 393 renal,95.3 µM
same,TGI,SF-268 CNS,> 100 µM
same,TGI,SF-295 CNS,> 100 µM
same,TGI,SF-539 CNS,> 100 µM
same,TGI,SK-MEL-2 melanoma,> 100 µM
same,TGI,SK-MEL-28 melanoma,> 100 µM
same,TGI,SK-MEL-5 melanoma,> 100 µM
same,TGI,SK-OV-3 ovarian,> 100 µM
same,TGI,SN12C renal,> 100 µM
same,TGI,SNB-19 CNS,> 100 µM
same,TGI,SNB-75 CNS,> 100 µM
same,TGI,SR leukemia,97.4 µM
same,TGI,SW-620 colon,> 100 µM
same,TGI,T-47D breast,> 100 µM
same,TGI,TK-10 renal,> 100 µM
same,TGI,U251 CNS,> 100 µM
same,TGI,UACC-257 melanoma,> 100 µM
same,TGI,UO-31 renal,> 100 µM
CC(C)(C)OC(=O)CCC(NC(=O)OCC1c2ccccc2-c2ccccc21)C(=O)NC(Cc1c[nH]c2ccccc12)C(=O)NC(CCCCNC(=O)OC(C)(C)C)C(=O)N1CCCC1C(=O)NCC(N)=O (centres undefined) (Fmoc-E(OtBu)WK(Boc)PG-NH2; configuration not given here),TGI,786-0 renal,31.3 µM and 34.9 µM
same,GI50,A549 NSCLC,17.6 µM and > 100 µM
same,TGI,A549 NSCLC,31.5 µM and > 100 µM
same,TGI,ACHN renal,30 µM and 35 µM
same,TGI,BT-549 breast,29.5 µM and 38.3 µM
same,GI50,CCRF-CEM leukemia,67.3 µM and 31.5 µM
same,TGI,CCRF-CEM leukemia,> 100 µM and 73.7 µM
same,GI50,COLO 205 colon,17.1 µM and 41.9 µM
same,TGI,COLO 205 colon,32.7 µM and > 100 µM
same,GI50,DU-145 prostate,16.1 µM and > 100 µM
same,TGI,DU-145 prostate,29.6 µM and > 100 µM
same,GI50,EKVX NSCLC,17.9 µM and > 100 µM
same,TGI,EKVX NSCLC,34.8 µM and > 100 µM
same,TGI,HCC-2998 colon,> 100 µM
same,GI50,HCT-116 colon,18.3 µM and 48.1 µM
same,TGI,HCT-116 colon,32.2 µM and > 100 µM
same,GI50,HCT-15 colon,12.5 µM and 73.9 µM
same,TGI,HCT-15 colon,24.9 µM and > 100 µM
same,GI50,HL-60(TB) leukemia,3.8 µM and 33.5 µM
same,TGI,HL-60(TB) leukemia,> 100 µM
same,GI50,HOP-62 NSCLC,18 µM and 42.2 µM
same,TGI,HOP-62 NSCLC,31.8 µM and > 100 µM
same,TGI,HOP-92 NSCLC,31.4 µM and 35.7 µM
same,TGI,HS 578T breast,59.3 µM and 76.1 µM
same,TGI,HT29 colon,> 100 µM
same,TGI,IGROV1 ovarian,29.5 µM and > 100 µM
same,TGI,K-562 leukemia,> 100 µM
same,GI50,KM12 colon,16.2 µM and 35.9 µM
same,TGI,KM12 colon,33.1 µM and > 100 µM
same,TGI,LOX IMVI melanoma,24.5 µM and 44.7 µM
same,TGI,M14 melanoma,90.5 µM and > 100 µM
same,TGI,MALME-3M melanoma,33.9 µM and 78.9 µM
same,TGI,MCF7 breast,> 100 µM
same,TGI,MDA-MB-231 breast,25.2 µM and 28.9 µM
same,GI50,MDA-MB-435,18 µM and 42.7 µM
same,TGI,MDA-MB-435,31.9 µM and > 100 µM
same,TGI,MDA-N,31.6 µM and > 100 µM
same,TGI,MOLT-4 leukemia,61.7 µM and 81.7 µM
same,GI50,NCI-H226 lung,15.3 µM and 78.8 µM
same,TGI,NCI-H226 lung,32.5 µM and > 100 µM
same,GI50,NCI-H23 lung,14.2 µM and 32.7 µM
same,TGI,NCI-H23 lung,27.2 µM and > 100 µM
same,TGI,NCI-H460 lung,30.4 µM and 68.9 µM
same,TGI,NCI-H522 lung,4.16 µM
same,GI50,NCI/ADR-RES ovarian,16.9 µM and 68.5 µM
same,TGI,NCI/ADR-RES ovarian,30.6 µM and > 100 µM
same,TGI,OVCAR-3 ovarian,37.4 µM and 51 µM
same,TGI,OVCAR-4 ovarian,25.5 µM and 31.2 µM
same,GI50,OVCAR-5 ovarian,45.6 µM and > 100 µM
same,TGI,OVCAR-5 ovarian,> 100 µM
same,TGI,OVCAR-8 ovarian,33.4 µM and > 100 µM
same,GI50,PC-3 prostate,16.4 µM and > 100 µM
same,TGI,PC-3 prostate,29.9 µM and > 100 µM
same,TGI,RPMI-8226 leukemia,35.6 µM and > 100 µM
same,TGI,RXF 393 renal,28.3 µM and 50.4 µM
same,GI50,SF-268 CNS,21.5 µM and 44.7 µM
same,TGI,SF-268 CNS,37.2 µM and > 100 µM
same,TGI,SF-295 CNS,> 100 µM
same,TGI,SF-539 CNS,> 100 µM
same,TGI,SK-MEL-2 melanoma,39.2 µM and 33.5 µM
same,TGI,SK-MEL-28 melanoma,> 100 µM
same,TGI,SK-MEL-5 melanoma,29.7 µM and > 100 µM
same,TGI,SK-OV-3 ovarian,> 100 µM and 93.9 µM
same,GI50,SN12C renal,18.3 µM and 67.4 µM
same,TGI,SN12C renal,32.2 µM and > 100 µM
same,TGI,SNB-19 CNS,72.9 µM and 40.6 µM
same,TGI,SNB-75 CNS,52.1 µM and 29.9 µM
same,TGI,SR leukemia,52.7 µM and > 100 µM
same,GI50,SW-620 colon,19 µM and 46.9 µM
same,TGI,SW-620 colon,33.6 µM and > 100 µM
same,TGI,T-47D breast,> 100 µM
same,GI50,TK-10 renal,36.5 µM and > 100 µM
same,TGI,TK-10 renal,> 100 µM
same,TGI,U251 CNS,31.1 µM and 31 µM
same,GI50,UACC-257 melanoma,40.4 µM and 94.9 µM
same,TGI,UACC-257 melanoma,> 100 µM
same,TGI,UACC-62 melanoma,28.2 µM and 39.9 µM
same,GI50,UO-31 renal,3.85 µM and 14.4 µM
same,TGI,UO-31 renal,14.7 µM and 28.1 µM
